For 24 molecules, AC50 results are on record in US12344610B2, “APOL1 inhibitors and methods of use” (Maze Therapeutics, Inc., priority 2022, dated 2025).

The test addresses T1, APOL1 G2 (Homo sapiens, UniProt O14791, DEL388-389).
T1 construct: expressed in transfected cells; host or cells: HEK293 T-REx clonal line stably expressing GCaMP6f (HEK T-REx/GCaMP6f/APOL1 G2 K6.3), doxycycline induced
T1 sequence (O14791 with tags, fused parts or gaps DEL388-389): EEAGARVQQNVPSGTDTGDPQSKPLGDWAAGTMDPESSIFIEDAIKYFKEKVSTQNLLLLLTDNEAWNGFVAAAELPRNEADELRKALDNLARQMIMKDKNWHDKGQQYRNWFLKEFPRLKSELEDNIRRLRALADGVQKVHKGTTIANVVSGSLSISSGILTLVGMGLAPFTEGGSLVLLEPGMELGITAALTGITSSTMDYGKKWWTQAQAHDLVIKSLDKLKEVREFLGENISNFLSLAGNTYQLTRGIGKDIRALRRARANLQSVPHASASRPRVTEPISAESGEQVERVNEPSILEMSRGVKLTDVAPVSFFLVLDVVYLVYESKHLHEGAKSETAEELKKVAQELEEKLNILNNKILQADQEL
Kind of test: APOL1-mediated calcium transport (calcium influx) assay, HEK T-REx/GCaMP6f/APOL1 G2 K6.3 cells, FLIPR TETRA. The format is cell-based. The note with it: prevention of calcium influx; geometric mean of at least 2 assay runs; † = average of a technical replicate from a single assay run. Summed up: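 A HEK293 T-REx clone stably expressing GCaMP6f had APOL1 G2 induced with doxycycline (20 ng/mL solution added) for 6 h. Cells were then washed into Ca2+-free Tyrode's buffer (pH 7.4) and preincubated with compounds (duplicate 8-point) for 10 min at room temperature. Ca2+ injection to 5 mM final produced FLIPR GCaMP fluorescence, giving AC50 for influx inhibition (geometric mean, ≥2 runs).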

On to `CC1(O)CC(CN2C(=O)CCc3cc(OCCN4CCC5(CC4)C(=O)Nc4ccc(Cl)cc45)cnc32)C1` (stereo not drawn) [Compound 327, 5-chloro-1′-[2-({8-[(3-hydroxy-3-methylcyclobutyl)methyl]-7-oxo-5,6,7,8-tetrahydro-1,8-naphthyridin-3-yl}oxy)ethyl]-1,2-dihydrospiro[indole-3,4′-piperidin]-2-one], for which the AC50 turned out to be 452 nM. Regarding `Cc1nc(-c2ccc(OCCN3CCC4(CC3)C(=O)N(C)c3ccccc34)cc2)no1` [Compound 35, 1-methyl-1′-{2-[4-(5-methyl-1,2,4-oxadiazol-3-yl)phenoxy]ethyl}-1,2-dihydrospiro[indole-3,4′-piperidin]-2-one], the half-maximal activity concentration (AC50) came to 142 nM.

As for `CC1(O)CC(c2ncc(OCCN3CCC4(CC3)C(=O)Nc3ccc(Cl)cc34)cn2)C1` (single isomer, unassigned) [Compound 393, 5-chloro-1′-[2-({2-[(cis) or (trans)-3-hydroxy-3-methylcyclobutyl]pyrimidin-5-yl}oxy)ethyl]-1,2-dihydrospiro[indole-3,4′-piperidin]-2-one], the AC50 turned out to be 1060 nM.

As to `C[C@]1(O)C[C@@H](n2nnc3cc(OCCN4CCC5(CC4)C(=O)Nc4ccc(Cl)cc45)cc(C(F)(F)F)c32)C1` [Compound 434, 5-chloro-1′-[2-({1-[(cis)-3-hydroxy-3-methylcyclobutyl]-7-(trifluoromethyl)-1H-1,2,3-benzotriazol-5-yl}oxy)ethyl]-1,2-dihydrospiro[indole-3,4′-piperidin]-2-one], the AC50 is 1270 nM.

Take `C[C@]1(O)C[C@@H](n2c(=O)oc3cc(OCCN4CCC5(CC4)C(=O)Nc4ccc(Cl)cc45)cnc32)C1` [Compound 394, 5-chloro-1′-[2-({2-oxo-3-[(cis)-3-hydroxy-3-methylcyclobutyl]-2H,3H-[1,3]oxazolo[4,5-b]pyridin-6-yl}oxy)ethyl]-1,2-dihydrospiro[indole-3,4′-piperidin]-2-one]: the AC50 was found to be 250 nM. On to `Cc1cc(OCCN2CCC3(CC2)C(=O)Nc2ccc(Cl)cc23)ccc1C(N)=O` [Compound 49, 4-(2-{5-chloro-2-oxo-1,2-dihydrospiro[indole-3,4′-piperidin]-1′-yl}ethoxy)-2-methylbenzamide], for which the AC50 was 875 nM. As to `C[C@]1(O)C[C@@H](n2cc3cc(OCCN4CCC5(CC4)C(=O)Nc4ccc(Cl)cc45)cc(C(F)(F)F)c3n2)C1` [Compound 427, 5-chloro-1′-[2-({2-[(cis)-3-hydroxy-3-methylcyclobutyl]-7-(trifluoromethyl)-2H-indazol-5-yl}oxy)ethyl]-1,2-dihydrospiro[indole-3,4′-piperidin]-2-one], the AC50 is 708 nM.

Turning to `CS(C)(=O)=Nc1ccc(OCCN2CCC3(CC2)C(=O)Nc2ccc(C#N)cc23)cc1` [Compound 77, 1′-[2-(4-{[dimethyl(oxo)-λ^6-sulfanylidene]amino}phenoxy)ethyl]-2-oxo-1,2-dihydrospiro[indole-3,4′-piperidine]-5-carbonitrile], the half-maximal activity concentration (AC50) came to 1600 nM. As for `CS(=O)(=O)c1ccc(OCCN2CCC3(CC2)C(=O)Nc2ccc(Br)cc23)cc1` [Compound 72, 5-bromo-1′-[2-(4-methanesulfonylphenoxy)ethyl]-1,2-dihydrospiro[indole-3,4′-piperidin]-2-one], the AC50 was found to be 252 nM.

`CN1C(=O)CCc2cc(OCCN3CCC4(CC3)C(=O)Nc3ccc(C#N)cc34)cnc21` [Compound 79, 1′-{2-[(8-methyl-7-oxo-5,6,7,8-tetrahydro-1,8-naphthyridin-3-yl)oxy]ethyl}-2-oxo-1,2-dihydrospiro[indole-3,4′-piperidine]-5-carbonitrile]: the AC50 stood at 687 nM. The same measure for `CS(=O)(=O)c1ccc(OCCN2CCC3(CC2)C(=O)Nc2ccc(Cl)cc23)cn1` [Compound 64, 5-chloro-1′-{2-[(6-methanesulfonylpyridin-3-yl)oxy]ethyl}-1,2-dihydrospiro[indole-3,4′-piperidin]-2-one]: 455 nM.

Take `C[C@]1(O)C[C@@H](n2c(=O)[nH]c3cc(OCCN4CCC5(CC4)C(=O)Nc4ccc(Cl)cc45)cc(C(F)(F)F)c32)C1` [Compound 468, 5-chloro-1′-[2-({2-oxo-1-[(cis)-3-hydroxy-3-methylcyclobutyl]-7-(trifluoromethyl)-2,3-dihydro-1H-1,3-benzodiazol-5-yl}oxy)ethyl]-1,2-dihydrospiro[indole-3,4′-piperidin]-2-one]: the concentration at half-maximal activity (AC50) stood at 867 nM.

Consider `C[C@]1(O)C[C@@H](n2c(=O)ccc3cc(OCCN4CCC5(CC4)C(=O)Nc4ccc(C(F)F)cc45)cnc32)C1` [Compound 324, 5-(difluoromethyl)-1′-[2-({7-oxo-8-[(cis)-3-hydroxy-3-methylcyclobutyl]-7,8-dihydro-1,8-naphthyridin-3-yl}oxy)ethyl]-1,2-dihydrospiro[indole-3,4′-piperidin]-2-one], for which the AC50 was determined as 942 nM. On to `CN(c1ccc(OCCN2CCC3(CC2)C(=O)Nc2ccc(Cl)cc23)cc1)S(C)(=O)=O` [Compound 76, N-[4-(2-{5-chloro-2-oxo-1,2-dihydrospiro[indole-3,4′-piperidin]-1′-yl}ethoxy)phenyl]-N-methylmethanesulfonamide], for which the half-maximal activity concentration (AC50) is 678 nM. With `CC1(O)CC(CN2C(=O)CCc3cc(OCCN4CCC5(CC4)C(=O)Nc4ccc(Cl)cc45)cnc32)C1` (single isomer, unassigned) [Compound 322, 5-chloro-1′-{2-[(7-oxo-8-{[(trans) or (cis)-3-hydroxy-3-methylcyclobutyl]methyl}-5,6,7,8-tetrahydro-1,8-naphthyridin-3-yl)oxy]ethyl}-1,2-dihydrospiro[indole-3,4′-piperidin]-2-one] the figure was 588 nM; with `C[C@]1(O)C[C@@H](n2ncc3cc(OCCN4CCC5(CC4)C(=O)Nc4ccc(Cl)cc45)cc(C(F)(F)F)c32)C1` [Compound 464, 5-chloro-1′-[2-({1-[(cis)-3-hydroxy-3-methylcyclobutyl]-7-(trifluoromethyl)-1H-indazol-5-yl}oxy)ethyl]-1,2-dihydrospiro[indole-3,4′-piperidin]-2-one], 1190 nM; with `CC(=O)N1CCCc2cc(OCCN3CCC4(CC3)C(=O)Nc3ccc(Cl)cc34)ccc21` [Compound 56, 1′-{2-[(1-acetyl-1,2,3,4-tetrahydroquinolin-6-yl)oxy]ethyl}-5-chloro-1,2-dihydrospiro[indole-3,4′-piperidin]-2-one], 1010 nM. For `CC1(O)CC2(CN(c3ncc(OCCN4CCC5(CC4)C(=O)Nc4ccc(Cl)cc45)cn3)C2)C1` [Compound 459, 5-chloro-1′-{2-[(2-{6-hydroxy-6-methyl-2-azaspiro[3.3]heptan-2-yl}pyrimidin-5-yl)oxy]ethyl}-1,2-dihydrospiro[indole-3,4′-piperidin]-2-one], the AC50 stood at 370 nM. `C[C@]1(O)C[C@@H](n2c(=O)ccc3cc(OCCN4CCC5(CC4)C(=O)Nc4ccc(Cl)cc45)cnc32)C1` [Compound 323, 5-chloro-1′-[2-({7-oxo-8-[(cis)-3-hydroxy-3-methylcyclobutyl]-7,8-dihydro-1,8-naphthyridin-3-yl}oxy)ethyl]-1,2-dihydrospiro[indole-3,4′-piperidin]-2-one]: the concentration at half-maximal activity (AC50) turned out to be 400 nM. As for `C[C@]1(O)C[C@@H](N2C(=O)Cc3cc(OCCN4CCC5(CC4)C(=O)Nc4ccc(Cl)cc45)cnc32)C1` [Compound 345, 5-chloro-1′-[2-({2-oxo-1-[(cis)-3-hydroxy-3-methylcyclobutyl]-1H,2H,3H-pyrrolo[2,3-b]pyridin-5-yl}oxy)ethyl]-1,2-dihydrospiro[indole-3,4′-piperidin]-2-one], the AC50 was 469 nM. Regarding `CC(C)(O)c1ncc(OCCN2CCC3(CC2)C(=O)Nc2ccc(Cl)cc23)cc1C(F)(F)F` [Compound 371, 5-chloro-1′-(2-{[6-(2-hydroxypropan-2-yl)-5-(trifluoromethyl)pyridin-3-yl]oxy}ethyl)-1,2-dihydrospiro[indole-3,4′-piperidin]-2-one], the half-maximal activity concentration (AC50) worked out at 504 nM.

In the case of `C[C@]1(O)C[C@@H](N2C(=O)NCc3cc(OCCN4CCC5(CC4)C(=O)Nc4ccc(Cl)cc45)cnc32)C1` [Compound 356, 5-chloro-1′-[2-({2-oxo-1-[(cis)-3-hydroxy-3-methylcyclobutyl]-1H,2H,3H,4H-pyrido[2,3-d]pyrimidin-6-yl}oxy)ethyl]-1,2-dihydrospiro[indole-3,4′-piperidin]-2-one], the AC50 was 2490 nM. Consider `C[C@]1(O)C[C@@H](n2cc3cc(OCCN4CCC5(CC4)C(=O)Nc4ccc(C#N)cc45)cc(C(F)(F)F)c3n2)C1` [Compound 428, 2-oxo-1′-[2-({2-[(cis)-3-hydroxy-3-methylcyclobutyl]-7-(trifluoromethyl)-2H-indazol-5-yl}oxy)ethyl]-1,2-dihydrospiro[indole-3,4′-piperidine]-5-carbonitrile], for which the AC50 was 1200 nM.

As to `C[C@]1(O)C[C@@H](n2cnc3cc(OCCN4CCC5(CC4)C(=O)Nc4c(I)cc(Cl)cc45)cc(C(F)(F)F)c32)C1` [Compound 453, 5-chloro-7-iodo-1′-[2-({1-[(cis)-3-hydroxy-3-methylcyclobutyl]-7-(trifluoromethyl)-1H-1,3-benzodiazol-5-yl}oxy)ethyl]-1,2-dihydrospiro[indole-3,4′-piperidin]-2-one], the concentration at half-maximal activity (AC50) came out at 935 nM.
